One assay concerns the target hPASK (kinase domain) (Homo sapiens (Human), UniProt Q96RG2). Nature of the assay: PAS Kinase Luminescence Assay (Kinase-Glo), kinase domain. The class given is biochemical. On the procedure: PAS Kinase Luminescence Assay
One assay for purified hPASK activity utilizes the Kinase-Glo Luminescent Kinase Assay (Promega), which quantifies the amount of ATP remaining in solution following kinase reaction. The assay is carried out in a 96-well plate format and is performed by adding a volume of Kinase-Glo Reagent (Promega, catalog #V3771) equal to the volume of solution in the well of a completed kinase reaction. Kinase-Glo reagent contains Luciferase and its substrate. After addition to a kinase reaction it allows to measure luminescence. The amount of ATP left in solution at the time of Kinase-Glo Plus addition is directly proportional to the luminescence that is measured in each well, and inversely correlated with kinase activity.
Purified hPASK from insect cells (0.02 μg) is added to a 50 μL reaction mix containing 40 mM HEPES (pH 7.0), 100 mM KCl, 5 mM MgCl2, 1 mM DTT and 1 μg of MBP protein. Inhibitory compounds are then added and the mixture is incubated for 10 min at 25° C. before adding 5 μL of ATP (at desired concentration). The reaction is allowed to proceed at 25° C. for 1 hour before adding 50 μL of Kinase-Glo reagent. The luminescence is measured as soon as 10 minutes after Kinase-Glo reagent is added.
Results are shown below in Table 1, where NT means not tested.
Background: In Kinase-Glo more light means more ATP remaining.

Another assay concerns the target CK2a2 (Homo sapiens (Human), UniProt P19784). Nature of the assay: Biochemical Assay for CK2 Activity. Conditions: 33P-ATP radiochemical assay; read-out: IC50 CK2 a2. The gist of the method:
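GST-tagged full-length human CK2a2 from insect cells (1.2 nM) with 20 μM RRRDDDSDDD peptide, in pH 7.5 HEPES buffer with MgCl2, DTT and 1% DMSO. Reactions started with ³³P-ATP were run for 120 min at room temperature. Substrate phosphorylation was measured by P81 phosphocellulose filter binding and scintillation counting.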

The target in assay [1] is PASK (Homo sapiens (Human), UniProt Q96RG2). Nature of the assay: PAS Kinase FRET Assay. The class given is biochemical. Conditions: TR-FRET assay; read-out: IC50 Kinase Domain. The gist of the method:
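TR-FRET read-out (665/615 nm) of ULight-peptide phosphorylation by PASK, detected with Eu-labelled anti-phospho antibody. Compound, kinase and substrate/ATP reacted 2 h at 25 °C in the dark in 50 mM HEPES, 10 mM MgCl2, 1 mM EGTA, 0.01% Tween-20, 2 mM DTT. Eleven-point dilution series made at 4× final.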

Assay [2] has as its target PASK (UniProt #Q96RG2; residues 879-1323) (Homo sapiens (Human), UniProt Q96RG2). Nature of the assay: PASK ATP Radiochemical Assay. The note with it: 33P-ATP radiochemical assay; read-out: IC50 Kinase Domain. The class given is biochemical. The gist of the method: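 Radiometric kinase assay: GST-tagged PASK (5 nM final) from insect cells with Myelin Basic Protein (20 μM) in HEPES pH 7.5 buffer, 1% DMSO; reaction started with ^33P-ATP, 120 min at room temperature. Substrate phosphorylation captured on P81 paper and read by scintillation counting.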

A value given as a limit tells only on which side of the number the result lay.

Sequence of PASK (UniProt #Q96RG2; residues 879-1323) (Homo sapiens (Human), UniProt Q96RG2) (Q96RG2 879-1323): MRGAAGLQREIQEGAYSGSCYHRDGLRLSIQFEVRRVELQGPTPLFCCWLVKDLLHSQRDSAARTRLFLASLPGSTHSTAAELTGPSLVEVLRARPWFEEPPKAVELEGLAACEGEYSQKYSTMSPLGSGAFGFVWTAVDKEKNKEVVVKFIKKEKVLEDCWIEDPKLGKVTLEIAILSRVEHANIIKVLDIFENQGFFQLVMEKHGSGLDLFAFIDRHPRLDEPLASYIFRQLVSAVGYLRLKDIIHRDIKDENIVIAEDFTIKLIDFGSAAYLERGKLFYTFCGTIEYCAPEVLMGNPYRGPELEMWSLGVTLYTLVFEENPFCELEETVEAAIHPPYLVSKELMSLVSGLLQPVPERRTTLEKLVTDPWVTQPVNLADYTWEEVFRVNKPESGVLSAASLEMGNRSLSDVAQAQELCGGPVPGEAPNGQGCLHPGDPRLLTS
Sequence of CK2a2 (P19784 whole entry): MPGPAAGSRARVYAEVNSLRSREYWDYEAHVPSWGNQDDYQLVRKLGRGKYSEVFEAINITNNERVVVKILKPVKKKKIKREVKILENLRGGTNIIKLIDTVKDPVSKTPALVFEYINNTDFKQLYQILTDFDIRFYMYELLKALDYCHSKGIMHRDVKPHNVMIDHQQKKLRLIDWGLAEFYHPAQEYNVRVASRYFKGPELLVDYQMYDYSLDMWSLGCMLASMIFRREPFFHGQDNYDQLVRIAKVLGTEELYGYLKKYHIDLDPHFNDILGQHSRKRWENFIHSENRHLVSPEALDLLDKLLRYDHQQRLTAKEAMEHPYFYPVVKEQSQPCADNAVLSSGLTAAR
Sequence of PASK (Homo sapiens (Human), UniProt Q96RG2) (Q96RG2 999-1251): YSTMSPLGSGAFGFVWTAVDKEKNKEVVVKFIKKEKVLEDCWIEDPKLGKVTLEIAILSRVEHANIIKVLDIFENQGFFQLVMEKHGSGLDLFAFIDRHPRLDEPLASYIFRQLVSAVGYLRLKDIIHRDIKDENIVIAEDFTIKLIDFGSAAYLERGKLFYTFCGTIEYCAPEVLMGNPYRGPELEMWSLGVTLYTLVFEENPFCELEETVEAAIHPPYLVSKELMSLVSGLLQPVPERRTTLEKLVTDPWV
Sequence of hPASK (kinase domain) (Q96RG2 999-1251): as above

A word on the IC50: it is the concentration that gives 50% inhibition. Regarding `Cc1cc(=O)n2nc(-c3cccc(Br)c3)cc2[nH]1` [Example 4, 2-(3-Bromo-phenyl)-5-methyl-4H-pyrazolo[1,5-a]pyrimidin-7-one], the IC50 against hPASK (kinase domain) was not above 10 µM.
The same measure, in the same setting: in the case of `COc1ccc(-c2c(C)nn3c(=O)cc(-c4ccccc4)[nH]c23)cc1` [Example 20, 3-(4-Methoxy-phenyl)-2-methyl-5-phenyl-4H-pyrazolo[1,5-a]pyrimidin-7-one] it was not below 10 µM.
Regarding `O=c1cc(-c2ccc3c(c2)OCCO3)[nH]c2c(-c3ccccc3)cnn12` [Example 40, 5-(2,3-Dihydrobenzo[b][1,4]dioxin-6-yl)-3-phenylpyrazolo[1,5-a]pyrimidin-7(4H)-one], the IC50 on CK2a2 and against hPASK (kinase domain) was not above 10 µM each time.
On hPASK (kinase domain), `Cc1nn2c(=O)cc(-c3ccc4c(c3)OCCO4)[nH]c2c1-c1ccccc1` [Example 41, 5-(2,3-Dihydrobenzo[b][1,4]dioxin-6-yl)-2-methyl-3-phenylpyrazolo[1,5-a]pyrimidin-7(4H)-one] gave a concentration for half-maximal inhibition (IC50) not above 10 µM.
The same measure, in the same setting: in the case of `O=c1cc(-c2ccc3c(c2)OCO3)[nH]c2c(-c3ccccc3)cnn12` [Example 42, 5-(Benzo[d][1,3]dioxol-5-yl)-3-phenylpyrazolo[1,5-a]pyrimidin-7(4H)-one] it was not above 10 µM.
On to `Cc1nn2c(=O)cc(-c3ccc4c(c3)OCO4)[nH]c2c1-c1ccccc1` [Example 43, 5-(Benzo[d][1,3]dioxol-5-yl)-2-methyl-3-phenylpyrazolo[1,5-a]pyrimidin-7(4H)-one], for which the IC50 at CK2a2 and against hPASK (kinase domain) was not above 10 µM throughout.
As to `O=c1cc(-c2ccc3c(c2)OCCO3)[nH]c2c(-c3ccccn3)cnn12` [Example 44, 5-(2,3-Dihydrobenzo[b][1,4]dioxin-6-yl)-3-(pyridin-2-yl)pyrazolo[1,5-a]pyrimidin-7(4H)-one], the half-maximal inhibitory concentration (IC50) at CK2a2 and at hPASK (kinase domain) was not above 10 µM throughout.
Regarding `O=c1cc(-c2ccc3c(c2)OCCO3)[nH]c2c(-c3cccnc3)cnn12` [Example 45, 5-(2,3-Dihydrobenzo[b][1,4]dioxin-6-yl)-3-(pyridin-3-yl)pyrazolo[1,5-a]pyrimidin-7(4H)-one], the IC50 on CK2a2 and on hPASK (kinase domain) was not above 10 µM each time.
Compound `O=c1cc(-c2ccc3c(c2)OCO3)[nH]c2c(-c3cccnc3)cnn12` [Example 46, 5-(Benzo[d][1,3]dioxol-5-yl)-3-(pyridin-3-yl)pyrazolo[1,5-a]pyrimidin-7(4H)-one] registered a 50% inhibitory concentration (IC50) at hPASK (kinase domain) not above 10 µM.
For `Cc1nn2c(=O)cc(-c3ccc4c(c3)OCO4)[nH]c2c1-c1ccccn1` [Example 48, 5-(Benzo[d][1,3]dioxol-5-yl)-2-methyl-3-(pyridin-2-yl)pyrazolo[1,5-a]pyrimidin-7(4H)-one], the concentration for half-maximal inhibition (IC50) on CK2a2 and on hPASK (kinase domain) was not above 10 µM in each case.
As for `Cc1nn2c(=O)cc(-c3ccc4c(c3)OCO4)[nH]c2c1-c1cccnc1` [Example 49, 5-(Benzo[d][1,3]dioxol-5-yl)-2-methyl-3-(pyridin-3-yl)pyrazolo[1,5-a]pyrimidin-7(4H)-one], at hPASK (kinase domain), the 50% inhibitory concentration (IC50) is not above 10 µM.
On to `Cc1nn2c(=O)cc(-c3ccc4c(c3)OCCO4)[nH]c2c1-c1ccccn1` [Example 50, 5-(2,3-Dihydrobenzo[b][1,4]dioxin-6-yl)-2-methyl-3-(pyridin-2-yl)pyrazolo[1,5-a]pyrimidin-7(4H)-one], for which the half-maximal inhibitory concentration (IC50) at CK2a2 and at hPASK (kinase domain) was not above 10 µM each time.
For the compound `Cc1nn2c(=O)cc(-c3ccc4c(c3)OCCO4)[nH]c2c1-c1cccnc1` [Example 51, 5-(2,3-Dihydrobenzo[b][1,4]dioxin-6-yl)-2-methyl-3-(pyridin-3-yl)pyrazolo[1,5-a]pyrimidin-7(4H)-one], the IC50 on CK2a2 and at hPASK (kinase domain) was not above 10 µM throughout.
In turn, `O=c1cc(-c2ccccc2)[nH]c2c(-c3ccccn3)cnn12` [Example 52, 5-Phenyl-3-(pyridin-2-yl)pyrazolo[1,5-a]pyrimidin-7(4H)-one] had a concentration for half-maximal inhibition (IC50) at hPASK (kinase domain) not above 10 µM.
For `O=c1cc(-c2cccnc2)[nH]c2c(-c3ccc(F)cc3)cnn12` [Example 78, 3-(4-Fluorophenyl)-5-(pyridin-3-yl)pyrazolo[1,5-a]pyrimidin-7(4H)-one], the IC50 at hPASK (kinase domain) is not above 10 µM.
`CCCNC(=O)c1c(N)nn2c(=O)cc(-c3ccc4[nH]nc(C)c4c3)[nH]c12` [Example 224, 2-Amino-5-(3-methyl-1H-indazol-5-yl)-7-oxo-N-propyl-4,7-dihydropyrazolo[1,5-a]pyrimidine-3-carboxamide]: the IC50 at CK2a2, at PASK [1] and on PASK [2] was not above 10 µM in each case.
As for `CCCNC(=O)c1c(N)nn2c(=O)cc(-c3ccc(Cl)cc3)[nH]c12` [Example 225, 2-Amino-5-(4-chlorophenyl)-7-oxo-N-propyl-4,7-dihydropyrazolo[1,5-a]pyrimidine-3-carboxamide], the IC50 at CK2a2, on PASK [1] and on PASK [2] was not above 10 µM each time.
Turning to `CCCNC(=O)c1c(O)nn2c(=O)cc(-c3ccc4c(c3)OCO4)[nH]c12` [Example 227, 5-(Benzo[d][1,3]dioxol-5-yl)-2-hydroxy-7-oxo-N-propyl-4,7-dihydropyrazolo[1,5-a]pyrimidine-3-carboxamide], the half-maximal inhibitory concentration (IC50) at CK2a2, at PASK [1] and on PASK [2] was not above 10 µM throughout.
On to `COc1c(-c2cc(=O)n3nc(N)c(-c4ccccn4)c3[nH]2)ccc2c1OCO2` [Example 234, 2-Amino-5-(4-methoxybenzo[d][1,3]dioxol-5-yl)-3-(pyridin-2-yl)pyrazolo[1,5-a]pyrimidin-7(4H)-one], for which the IC50 at CK2a2, on PASK [1] and on PASK [2] was not above 10 µM in each case.
Turning to `COc1c(-c2cc(=O)n3nc(O)c(-c4ccccn4)c3[nH]2)ccc2c1OCO2` [Example 235, 2-Hydroxy-5-(4-methoxybenzo[d][1,3]dioxol-5-yl)-3-(pyridin-2-yl)pyrazolo[1,5-a]pyrimidin-7(4H)-one], the IC50 at CK2a2, on PASK [1] and on PASK [2] was not above 10 µM each time.
Turning to `COc1c(-c2cc(=O)n3nc(C)c(-c4ccccn4)c3[nH]2)ccc2c1OCO2` [Example 237, 5-(4-Methoxybenzo[d][1,3]dioxol-5-yl)-2-methyl-3-(pyridin-2-yl)pyrazolo[1,5-a]pyrimidin-7(4H)-one], the IC50 at CK2a2, at PASK [1] and at PASK [2] was not above 10 µM in each case.
Take `COc1cc2[nH]nnc2cc1-c1cc(=O)n2nc(N)c(-c3ccccn3)c2[nH]1` [Example 243, 2-Amino-5-(6-methoxy-1H-benzo[d][1,2,3]triazol-5-yl)-3-(pyridin-2-yl)pyrazolo[1,5-a]pyrimidin-7(4H)-one]: the values for the half-maximal inhibitory concentration (IC50) on CK2a2, on PASK [1] and at PASK [2] were not below 10 µM, not above 10 µM and not above 10 µM, respectively.
Turning to `COc1c(-c2cc(=O)n3ncc(-c4ccccn4)c3[nH]2)ccc2[nH]nnc12` [Example 245, 5-(4-Methoxy-1H-benzo[d][1,2,3]triazol-5-yl)-3-(pyridin-2-yl)pyrazolo[1,5-a]pyrimidin-7(4H)-one], the 50% inhibitory concentration (IC50) on CK2a2, at PASK [1] and at PASK [2] was not above 10 µM throughout.
With `O=c1cc(-c2cc3nn[nH]c3cc2F)[nH]c2c(-c3ccccn3)cnn12` [Example 249, 5-(6-Fluoro-1H-benzo[d][1,2,3]triazol-5-yl)-3-(pyridin-2-yl)pyrazolo[1,5-a]pyrimidin-7(4H)-one], the IC50 on CK2a2, on PASK [1] and on PASK [2] was not above 10 µM each time.
Take `O=c1cc(-c2ccc(-c3ncco3)cc2)[nH]c2c(-c3ccccn3)cnn12` [Example 254, 5-(4-(Oxazol-2-yl)phenyl)-3-(pyridin-2-yl)pyrazolo[1,5-a]pyrimidin-7(4H)-one]: the IC50 at CK2a2 was not below 10 µM; at PASK [1] it was not above 10 µM; on PASK [2], not above 10 µM.
In the case of `N#Cc1ccc(-c2cc(=O)n3ncc(-c4ccccn4)c3[nH]2)cc1` [Example 256, 4-(7-Oxo-3-(pyridin-2-yl)-4,7-dihydropyrazolo[1,5-a]pyrimidin-5-yl)benzonitrile], the IC50 is not below 10 µM at CK2a2, not above 10 µM at PASK [1] and not above 10 µM on PASK [2].

For the origin of these results see patent publication US10953012B2, “Heterocyclic compounds for the inhibition of pask” (BioEnergenix LLC, priority 2011, dated 2021).
